Source: ChEMBL document CHEMBL4130529, “From PIM1 to PI3Kδ via GSK3β: Target Hopping through the Kinome” (ACS Med Chem Lett, 2017)

Tests used:
[1] = molecular target: Serine/threonine-protein kinase pim-1 (Homo sapiens, UniProt P11309); experiment: Inhibition of PIM1 (unknown origin) using TAMRA-ERMRPRKRQGSVRRRV-NH2 as substrate pretreated for 30 mins followed by substrate addition measured after 1 hr by IMAP assay
[2] = molecular target: T1, Glycogen synthase kinase-3 beta (Homo sapiens, UniProt P49841); experiment: Inhibition of GSK3beta (unknown origin) after 1 hr by fluorescence polarization assay
T1 sequence (P49841 whole entry, canonical isoform): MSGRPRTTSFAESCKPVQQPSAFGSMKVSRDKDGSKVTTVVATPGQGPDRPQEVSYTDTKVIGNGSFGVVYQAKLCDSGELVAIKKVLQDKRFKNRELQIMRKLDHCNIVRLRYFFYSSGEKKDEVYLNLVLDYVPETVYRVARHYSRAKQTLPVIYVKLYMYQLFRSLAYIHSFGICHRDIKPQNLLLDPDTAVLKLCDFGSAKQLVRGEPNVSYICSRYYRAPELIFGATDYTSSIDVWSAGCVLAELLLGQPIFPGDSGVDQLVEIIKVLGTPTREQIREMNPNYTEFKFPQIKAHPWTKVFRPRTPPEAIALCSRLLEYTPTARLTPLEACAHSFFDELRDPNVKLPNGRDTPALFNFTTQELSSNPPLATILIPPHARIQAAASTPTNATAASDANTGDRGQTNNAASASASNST

[3] = molecular target: T2, Phosphatidylinositol 4,5-bisphosphate 3-kinase catalytic subunit delta isoform (Homo sapiens, UniProt O00329); experiment: Inhibition of PI3Kdelta (unknown origin) using PIP2 as substrate pretreated for 15 mins followed by substrate addition measured after 1 hr
T2 sequence (O00329 whole entry): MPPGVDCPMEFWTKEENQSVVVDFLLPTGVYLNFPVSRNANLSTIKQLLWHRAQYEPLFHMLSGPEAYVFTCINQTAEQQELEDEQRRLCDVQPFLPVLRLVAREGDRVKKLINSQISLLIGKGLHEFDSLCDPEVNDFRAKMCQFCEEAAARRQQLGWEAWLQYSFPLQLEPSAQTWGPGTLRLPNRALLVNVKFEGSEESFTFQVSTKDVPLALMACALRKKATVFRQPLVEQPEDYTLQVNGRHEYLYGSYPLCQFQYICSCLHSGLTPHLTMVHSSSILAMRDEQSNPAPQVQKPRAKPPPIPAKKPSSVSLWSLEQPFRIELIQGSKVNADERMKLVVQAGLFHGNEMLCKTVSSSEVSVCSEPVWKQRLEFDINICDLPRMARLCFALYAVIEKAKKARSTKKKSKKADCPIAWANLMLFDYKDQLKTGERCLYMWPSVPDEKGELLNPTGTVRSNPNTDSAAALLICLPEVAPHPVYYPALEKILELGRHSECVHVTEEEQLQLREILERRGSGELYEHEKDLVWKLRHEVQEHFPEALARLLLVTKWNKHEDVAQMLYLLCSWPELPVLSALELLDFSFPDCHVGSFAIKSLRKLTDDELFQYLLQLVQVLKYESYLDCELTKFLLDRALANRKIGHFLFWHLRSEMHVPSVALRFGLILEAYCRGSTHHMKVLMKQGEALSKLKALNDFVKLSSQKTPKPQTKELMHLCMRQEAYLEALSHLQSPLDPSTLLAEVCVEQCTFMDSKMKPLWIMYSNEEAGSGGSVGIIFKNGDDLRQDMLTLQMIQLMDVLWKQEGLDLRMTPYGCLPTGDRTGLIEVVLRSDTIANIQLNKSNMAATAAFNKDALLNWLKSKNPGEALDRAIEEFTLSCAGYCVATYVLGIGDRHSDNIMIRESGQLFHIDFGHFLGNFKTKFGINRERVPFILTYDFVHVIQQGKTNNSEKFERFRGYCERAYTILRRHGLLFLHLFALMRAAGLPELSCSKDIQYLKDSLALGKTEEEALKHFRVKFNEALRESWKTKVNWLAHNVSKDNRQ

[4] = molecular target: Phosphatidylinositol 4,5-bisphosphate 3-kinase catalytic subunit alpha isoform (Homo sapiens, UniProt P42336); experiment: Inhibition of PI3Kalpha (unknown origin) using PIP2 as substrate pretreated for 15 mins followed by substrate addition measured after 1 hr
Chain of Phosphatidylinositol 4,5-bisphosphate 3-kinase catalytic subunit alpha isoform (P42336 whole entry, canonical isoform): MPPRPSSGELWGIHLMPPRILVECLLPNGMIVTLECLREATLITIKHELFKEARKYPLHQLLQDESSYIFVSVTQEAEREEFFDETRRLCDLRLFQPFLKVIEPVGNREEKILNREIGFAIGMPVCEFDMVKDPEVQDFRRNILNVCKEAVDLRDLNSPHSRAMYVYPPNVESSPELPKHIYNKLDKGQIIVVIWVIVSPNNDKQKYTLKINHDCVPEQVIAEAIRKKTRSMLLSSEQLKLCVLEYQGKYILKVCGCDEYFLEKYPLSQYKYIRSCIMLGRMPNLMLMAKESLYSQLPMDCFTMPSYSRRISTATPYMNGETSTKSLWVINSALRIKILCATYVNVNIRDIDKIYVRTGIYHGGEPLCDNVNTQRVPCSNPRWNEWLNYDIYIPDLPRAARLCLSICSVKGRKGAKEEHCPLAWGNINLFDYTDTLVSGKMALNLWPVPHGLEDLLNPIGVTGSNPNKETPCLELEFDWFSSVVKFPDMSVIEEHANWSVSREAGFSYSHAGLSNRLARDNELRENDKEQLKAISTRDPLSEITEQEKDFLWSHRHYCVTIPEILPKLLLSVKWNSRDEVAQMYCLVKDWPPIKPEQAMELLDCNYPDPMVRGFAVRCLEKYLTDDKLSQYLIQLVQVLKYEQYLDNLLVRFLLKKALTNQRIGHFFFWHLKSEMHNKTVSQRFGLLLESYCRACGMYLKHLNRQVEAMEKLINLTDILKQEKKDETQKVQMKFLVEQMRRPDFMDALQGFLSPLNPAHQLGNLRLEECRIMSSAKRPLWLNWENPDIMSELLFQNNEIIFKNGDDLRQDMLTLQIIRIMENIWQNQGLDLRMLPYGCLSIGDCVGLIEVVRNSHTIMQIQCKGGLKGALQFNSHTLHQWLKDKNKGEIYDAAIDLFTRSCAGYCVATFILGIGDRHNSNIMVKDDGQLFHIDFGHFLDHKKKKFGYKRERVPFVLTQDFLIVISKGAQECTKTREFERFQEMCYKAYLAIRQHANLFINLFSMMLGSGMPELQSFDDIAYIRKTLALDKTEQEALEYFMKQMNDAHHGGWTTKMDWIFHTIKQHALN

[5] = molecular target: Phosphatidylinositol 4,5-bisphosphate 3-kinase catalytic subunit beta isoform (Homo sapiens, UniProt P42338); experiment: Inhibition of PI3Kbeta (unknown origin) using PIP2 as substrate pretreated for 15 mins followed by substrate addition measured after 1 hr
Chain of Phosphatidylinositol 4,5-bisphosphate 3-kinase catalytic subunit beta isoform (P42338 whole entry, canonical isoform): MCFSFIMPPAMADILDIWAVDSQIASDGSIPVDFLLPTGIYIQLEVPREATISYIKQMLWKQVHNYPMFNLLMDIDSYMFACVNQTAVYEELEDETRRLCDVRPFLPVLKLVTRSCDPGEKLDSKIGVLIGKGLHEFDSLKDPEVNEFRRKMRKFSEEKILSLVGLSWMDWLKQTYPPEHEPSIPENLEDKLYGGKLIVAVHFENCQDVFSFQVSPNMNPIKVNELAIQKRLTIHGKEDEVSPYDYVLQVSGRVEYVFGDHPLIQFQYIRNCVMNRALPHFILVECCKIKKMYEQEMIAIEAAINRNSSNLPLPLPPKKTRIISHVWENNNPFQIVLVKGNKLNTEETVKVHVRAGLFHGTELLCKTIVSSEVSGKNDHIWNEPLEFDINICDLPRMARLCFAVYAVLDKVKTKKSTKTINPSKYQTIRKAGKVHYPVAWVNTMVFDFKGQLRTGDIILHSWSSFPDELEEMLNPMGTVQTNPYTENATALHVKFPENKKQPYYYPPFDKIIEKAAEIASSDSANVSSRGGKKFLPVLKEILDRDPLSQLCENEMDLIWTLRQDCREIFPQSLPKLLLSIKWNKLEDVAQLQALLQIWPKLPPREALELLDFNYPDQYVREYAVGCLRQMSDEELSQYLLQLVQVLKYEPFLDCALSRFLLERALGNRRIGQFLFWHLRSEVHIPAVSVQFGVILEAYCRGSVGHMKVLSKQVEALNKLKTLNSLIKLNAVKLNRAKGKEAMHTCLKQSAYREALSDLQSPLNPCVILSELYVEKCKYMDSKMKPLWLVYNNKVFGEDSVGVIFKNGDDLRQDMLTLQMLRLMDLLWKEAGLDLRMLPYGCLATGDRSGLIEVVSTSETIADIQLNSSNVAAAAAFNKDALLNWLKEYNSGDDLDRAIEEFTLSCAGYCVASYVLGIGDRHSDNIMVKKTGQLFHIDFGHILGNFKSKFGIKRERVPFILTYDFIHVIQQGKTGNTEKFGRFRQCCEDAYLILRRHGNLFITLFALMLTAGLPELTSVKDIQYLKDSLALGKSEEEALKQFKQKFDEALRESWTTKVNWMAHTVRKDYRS

[6] = molecular target: Phosphatidylinositol 4,5-bisphosphate 3-kinase catalytic subunit gamma isoform (Homo sapiens, UniProt P48736); experiment: Inhibition of PI3Kgamma (unknown origin) using PIP2 as substrate pretreated for 15 mins followed by substrate addition measured after 1 hr
Chain of Phosphatidylinositol 4,5-bisphosphate 3-kinase catalytic subunit gamma isoform (P48736 whole entry, canonical isoform): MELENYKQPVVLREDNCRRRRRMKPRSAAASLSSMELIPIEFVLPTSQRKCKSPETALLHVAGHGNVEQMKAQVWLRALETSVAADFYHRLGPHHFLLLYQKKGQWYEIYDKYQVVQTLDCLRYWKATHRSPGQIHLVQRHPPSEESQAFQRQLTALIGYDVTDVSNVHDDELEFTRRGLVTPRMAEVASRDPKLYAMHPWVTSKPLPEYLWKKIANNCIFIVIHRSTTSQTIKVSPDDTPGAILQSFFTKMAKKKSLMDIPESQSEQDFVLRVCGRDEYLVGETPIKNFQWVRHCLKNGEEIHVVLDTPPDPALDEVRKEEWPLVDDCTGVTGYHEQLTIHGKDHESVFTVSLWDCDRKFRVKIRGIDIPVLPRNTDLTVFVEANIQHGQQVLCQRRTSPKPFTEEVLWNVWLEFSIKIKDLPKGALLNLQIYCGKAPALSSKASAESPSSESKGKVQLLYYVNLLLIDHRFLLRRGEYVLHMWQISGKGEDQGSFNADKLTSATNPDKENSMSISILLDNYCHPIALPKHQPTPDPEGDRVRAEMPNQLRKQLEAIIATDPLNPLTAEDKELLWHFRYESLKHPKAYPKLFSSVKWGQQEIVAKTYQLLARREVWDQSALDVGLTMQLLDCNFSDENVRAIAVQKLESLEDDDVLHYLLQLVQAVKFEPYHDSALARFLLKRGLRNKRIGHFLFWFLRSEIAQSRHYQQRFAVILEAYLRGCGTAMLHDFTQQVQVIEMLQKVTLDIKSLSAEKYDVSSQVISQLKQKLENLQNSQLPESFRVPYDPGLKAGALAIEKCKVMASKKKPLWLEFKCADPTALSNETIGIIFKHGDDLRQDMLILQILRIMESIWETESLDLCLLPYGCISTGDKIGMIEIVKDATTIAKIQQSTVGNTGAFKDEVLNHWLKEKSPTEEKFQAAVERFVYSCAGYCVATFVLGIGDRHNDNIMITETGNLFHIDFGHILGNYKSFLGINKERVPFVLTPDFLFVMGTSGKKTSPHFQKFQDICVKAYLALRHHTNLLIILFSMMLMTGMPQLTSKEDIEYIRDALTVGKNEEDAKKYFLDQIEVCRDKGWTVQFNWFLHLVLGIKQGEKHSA

[7] = molecular target: T1, Glycogen synthase kinase-3 beta; experiment: Inhibition of human GSK3beta using YRRAAVPPSPSLSRHSSPHQ(pS)EDEEE as substrate in presence of [gamma-33P]-ATP
Homo sapiens = species: Homo sapiens; experiment: Selectivity ratio of pIC50 for ALK5 (unknown origin) to pIC50 for PI3Kdelta (unknown origin)

Chain of Serine/threonine-protein kinase pim-1 (P11309 whole entry): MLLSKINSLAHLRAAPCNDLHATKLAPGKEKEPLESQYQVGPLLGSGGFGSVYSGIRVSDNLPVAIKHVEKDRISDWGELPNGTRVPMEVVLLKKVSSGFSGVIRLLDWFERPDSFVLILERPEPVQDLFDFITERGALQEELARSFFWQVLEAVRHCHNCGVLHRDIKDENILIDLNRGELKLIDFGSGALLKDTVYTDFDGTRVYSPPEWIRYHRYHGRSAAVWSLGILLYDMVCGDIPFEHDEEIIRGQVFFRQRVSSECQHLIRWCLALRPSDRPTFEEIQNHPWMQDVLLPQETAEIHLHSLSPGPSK

Compound | IC50 [1] | IC50 [2] | IC50 [3] | IC50 [4] | IC50 [5] | IC50 [6] | IC50 [7] | Ratio IC50 (Homo sapiens)
O=C(Nc1cc(-c2ccc(O)cc2)cc2[nH]ncc12)C1CC1 | 0.316 µM | 0.631 µM | 6.31 µM | 25.1 µM | 25.1 µM | > 25.1 µM | – | –
O=C(Nc1n[nH]c2cc(-c3ccc(O)cc3)ccc12)C1CC1 | – | – | 25.1 µM | > 25.1 µM | > 25.1 µM | > 25.1 µM | – | –
O=C(Nc1cc(-c2ccccc2)cc2[nH]ncc12)C1CC1 | 15.8 µM | 31.6 µM | 20 µM | 25.1 µM | > 25.1 µM | 25.1 µM | – | –
O=C(Nc1cc(-c2ccc(O)cc2)cc2[nH]ncc12)c1ccccn1 | 0.126 µM | – | 0.501 µM | > 25.1 µM | > 25.1 µM | 5.01 µM | 1.58 µM | –
O=C(Nc1cc(-c2cccc(O)c2)cc2[nH]ncc12)C1CC1 | 2.51 µM | 1.26 µM | 3.98 µM | 20 µM | 20 µM | 7.94 µM | – | –
O=C(Nc1cc(-c2cccc3[nH]ccc23)cc2[nH]ncc12)c1ccccn1 | 2.51 µM | 3.16 µM | – | – | – | – | 20 µM | < 10

Second part, led by results:

IC50 [1] | IC50 [2] | IC50 [3] | IC50 [4] | IC50 [5] | IC50 [6] | Compound | IC50 [7] | Ratio IC50 (Homo sapiens)
15.8 µM | 7.94 µM | 1 µM | > 25.1 µM | 25.1 µM | > 25.1 µM | O=C(Nc1cc(-c2cccc3[nH]ccc23)cc2[nH]ncc12)C1CC1 | – | –
2 µM | 1.58 µM | 1.58 µM | 25.1 µM | 31.6 µM | 7.94 µM | O=C(Nc1cc(-c2cccc(O)c2)cc2[nH]ncc12)c1ccccn1 | – | –
– | > 25.1 µM | 3.16 µM | 25.1 µM | 12.6 µM | 15.8 µM | O=C(Nc1cc(-c2ccc3cc[nH]c3c2)cc2[nH]ncc12)c1ccccn1 | – | –
